The values that follow come from patent publication US7550451B2, “Progesterone receptor modulators with increased antigonadotropic activity for female birth control and hormone replacement therapy” (Bayer Schering Pharma AG, priority 2002, dated 2009).

Assay [1] concerns the target T1, Progesterone receptor (Oryctolagus cuniculus, UniProt P06186).
T1 construct: Uterus cytosol of the estradiol-primed rabbit; from tissue; host or cells: uterus cytosol of estradiol-primed rabbit
T1 sequence (P06186 1-930): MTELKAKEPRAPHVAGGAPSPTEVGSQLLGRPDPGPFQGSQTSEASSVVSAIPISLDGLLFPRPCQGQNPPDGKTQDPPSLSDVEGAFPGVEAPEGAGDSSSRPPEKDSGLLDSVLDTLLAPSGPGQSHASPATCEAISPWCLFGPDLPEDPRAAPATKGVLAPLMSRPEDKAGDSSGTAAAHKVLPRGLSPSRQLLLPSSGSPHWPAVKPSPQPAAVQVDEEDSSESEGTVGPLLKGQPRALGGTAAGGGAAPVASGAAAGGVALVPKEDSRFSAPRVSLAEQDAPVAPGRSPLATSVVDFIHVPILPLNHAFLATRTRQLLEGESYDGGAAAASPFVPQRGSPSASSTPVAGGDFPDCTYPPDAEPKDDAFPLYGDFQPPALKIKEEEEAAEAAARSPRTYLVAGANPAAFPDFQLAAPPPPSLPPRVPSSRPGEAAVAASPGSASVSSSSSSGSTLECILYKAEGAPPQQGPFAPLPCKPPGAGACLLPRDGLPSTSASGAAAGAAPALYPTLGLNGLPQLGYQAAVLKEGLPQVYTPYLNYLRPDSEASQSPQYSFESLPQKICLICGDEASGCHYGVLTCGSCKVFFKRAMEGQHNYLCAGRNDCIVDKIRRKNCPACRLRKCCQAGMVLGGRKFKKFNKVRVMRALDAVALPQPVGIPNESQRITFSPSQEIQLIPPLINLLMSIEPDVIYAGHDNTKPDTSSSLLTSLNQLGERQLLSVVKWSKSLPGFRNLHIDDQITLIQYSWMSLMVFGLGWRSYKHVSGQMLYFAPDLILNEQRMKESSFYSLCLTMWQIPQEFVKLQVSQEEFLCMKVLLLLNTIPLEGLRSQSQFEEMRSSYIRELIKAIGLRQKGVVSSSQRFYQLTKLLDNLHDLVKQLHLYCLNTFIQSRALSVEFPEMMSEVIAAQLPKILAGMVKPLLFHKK
The assay is described as follows: Receptor binding affinity, progesterone receptor (competitive binding, 3H-ORG 2058). The settings on record: Progesterone = 100%; uterus cytosol of estradiol-primed rabbit. As for the experimental part: (§1) The receptor binding affinity was determined by competitive binding of a specifically binding ^3H-labeled hormone (tracer) and the compound to be tested on receptors in the cytosol from animal target organs. In this case, receptor saturation and reaction equilibrium were sought.
(§2) The tracers and increasing concentrations of the compound to be tested (competitor) were co-incubated with the receptor-containing cytosol fraction at 0-4° C. over 18 hours. After separation of the unbonded tracer with carbon-dextran suspension, the receptor-bonded tracer portion was measured for each concentration, and the IC50 was determined from the concentration sequence. As a quotient of the IC50 values of the reference substance and the compound to be tested (×100%), the relative molar binding affinity (RBA) was calculated (RBA of the reference substance=100%).
Uterus cytosol of the estradiol-primed rabbit; homogenized in TED buffer (20 mmol of Tris/HCl, pH 7.4; 1 mmol of ethylenediamine tetraacetate, 2 mmol of dithiothreitol) with 250 mmol of saccharose; stored at −30° C. Tracer: ^3H-ORG 2058, 5 nmol; reference substance: progesterone.

For assay [2], the target named is T2, Glucocorticoid receptor (Rattus norvegicus, UniProt P06536).
T2 construct: Thymus cytosol of the adrenalectomized rat; from tissue; host or cells: thymus cytosol of adrenalectomized rat
T2 sequence (P06536 1-795): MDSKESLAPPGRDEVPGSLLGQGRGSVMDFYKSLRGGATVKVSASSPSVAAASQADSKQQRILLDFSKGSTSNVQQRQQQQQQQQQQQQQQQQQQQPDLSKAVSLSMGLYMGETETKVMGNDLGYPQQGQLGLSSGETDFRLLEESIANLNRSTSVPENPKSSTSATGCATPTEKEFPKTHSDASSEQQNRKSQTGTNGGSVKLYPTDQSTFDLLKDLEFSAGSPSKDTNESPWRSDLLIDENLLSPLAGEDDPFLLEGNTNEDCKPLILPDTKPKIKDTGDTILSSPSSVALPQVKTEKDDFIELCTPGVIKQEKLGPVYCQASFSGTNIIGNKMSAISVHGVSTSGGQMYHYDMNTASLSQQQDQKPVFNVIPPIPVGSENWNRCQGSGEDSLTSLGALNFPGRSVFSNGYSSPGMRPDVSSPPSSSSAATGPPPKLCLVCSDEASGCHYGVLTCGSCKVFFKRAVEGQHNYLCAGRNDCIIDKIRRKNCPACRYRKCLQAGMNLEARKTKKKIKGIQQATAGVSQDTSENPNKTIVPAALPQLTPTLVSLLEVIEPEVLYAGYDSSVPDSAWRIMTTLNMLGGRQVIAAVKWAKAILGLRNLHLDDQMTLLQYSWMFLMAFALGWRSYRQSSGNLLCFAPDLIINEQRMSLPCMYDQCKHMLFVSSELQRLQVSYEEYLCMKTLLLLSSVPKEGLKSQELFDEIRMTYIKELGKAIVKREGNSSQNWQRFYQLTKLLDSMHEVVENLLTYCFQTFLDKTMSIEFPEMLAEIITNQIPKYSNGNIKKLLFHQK
The assay is described as follows: Receptor binding affinity, glucocorticoid receptor (competitive binding, 3H-dexamethasone). The settings on record: Dexamethasone = 100%; thymus cytosol of adrenalectomized rat. On the procedure: as §1, §2
Thymus cytosol of the adrenalectomized rat, thymi stored at −30° C.; buffer: TED. Tracer: ^3H-Dexamethasone, 20 nmol; reference substance: dexamethasone.

Assay [3] concerns the target T3, Androgen receptor (Rattus norvegicus, UniProt P15207).
T3 construct: Prostate cytosol of the castrated rat; from tissue; host or cells: prostate cytosol of castrated rat
T3 sequence (P15207 1-902): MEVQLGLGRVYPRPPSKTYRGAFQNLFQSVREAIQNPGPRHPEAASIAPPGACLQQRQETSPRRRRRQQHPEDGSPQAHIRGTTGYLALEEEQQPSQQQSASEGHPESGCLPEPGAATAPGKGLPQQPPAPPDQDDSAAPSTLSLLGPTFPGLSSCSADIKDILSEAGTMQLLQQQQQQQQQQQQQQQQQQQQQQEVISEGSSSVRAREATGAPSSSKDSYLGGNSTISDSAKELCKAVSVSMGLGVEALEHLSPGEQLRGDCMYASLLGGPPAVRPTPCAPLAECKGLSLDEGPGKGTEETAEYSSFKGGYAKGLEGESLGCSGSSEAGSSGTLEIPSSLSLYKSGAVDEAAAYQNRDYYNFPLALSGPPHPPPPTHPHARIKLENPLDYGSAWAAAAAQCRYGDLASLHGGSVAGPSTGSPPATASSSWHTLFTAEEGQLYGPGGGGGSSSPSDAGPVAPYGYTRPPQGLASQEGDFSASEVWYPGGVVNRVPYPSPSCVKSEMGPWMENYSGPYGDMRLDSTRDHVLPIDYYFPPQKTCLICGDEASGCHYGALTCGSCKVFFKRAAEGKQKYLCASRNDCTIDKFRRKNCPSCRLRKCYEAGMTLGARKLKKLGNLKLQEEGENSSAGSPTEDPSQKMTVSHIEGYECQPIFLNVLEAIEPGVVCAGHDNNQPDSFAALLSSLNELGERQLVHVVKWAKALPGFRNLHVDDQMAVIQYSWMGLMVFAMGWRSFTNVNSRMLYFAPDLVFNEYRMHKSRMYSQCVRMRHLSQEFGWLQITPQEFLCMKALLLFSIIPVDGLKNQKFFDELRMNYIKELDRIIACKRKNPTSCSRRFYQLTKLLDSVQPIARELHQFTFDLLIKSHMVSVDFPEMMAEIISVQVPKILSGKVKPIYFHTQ
The assay is described as follows: Receptor binding affinity, androgen receptor (competitive binding, 3H-metribolone). To be noted: prostate cytosol of castrated rat; for AR relative molar binding affinity (RBA) a) against RU 1881: reference RU 1881 (metribolone); for AR relative molar binding affinity (RBA) b) against dihydrotestosterone (DHT): reference dihydrotestosterone. On the procedure:
as §1, §2
Prostate cytosol of the castrated rat; prostates stored at −30° C.; buffer: TED with 10% glycerol as well as 2 μmol of triamcinolone acetonide. Tracer: ^3H-metribolone 4 nmol; reference substances: metribolone (RU 1881) or 5α-dihydrotestosterone.

The test system of assay [4] is adult female rats. The assay is described as follows: Nidation-inhibiting test (antifertile effects in the perinidation phase). To be noted: day 5-7 of pregnancy, rat. The class given is in vivo. As for the experimental part:
The determination of the progesterone-antagonistic activities was carried out on adult female rats in the nidation-inhibiting test. The principle of the test is described as follows: progesterone preserves pregnancy in all stages. An early-abortive action can accordingly be expected from competitive progesterone antagonists. Female rats (Schoe strain: WIST Tierzucht GmbH Schönwalde) with a weight of 180-200 g were subjected daily to a cycle control and paired up in proestrus. The beginning of pregnancy was determined by detecting sperm in the vaginal smear on the same day (=day 1 of pregnancy=d1 p.c.). From the 5th-7th day of pregnancy, the test substances were injected subcutaneously daily. On the 9th day, vaginal smears were taken, then the animals were autopsied and the uteri were prepared. The degeneration of implants and pathological, hemorrhagic and otherwise abnormal nidation sites were counted as abortions and are shown in Table 2.

With `CO[C@H]1CC[C@H]2[C@@H]3CCC4=CC(=O)CCC4=C3[C@@H](c3ccc(/C=N/O)cc3)C[C@]12C` [Example 5, 4-(17β-Methoxy-3-oxoestra-4,9-dien-11β-yl)benzaldehyde-1(E)-oxime], the “PR relative molar binding affinity (RBA)” value in assay [1] is 159%. For the same molecule, the “GR relative molar binding affinity (RBA)” value in assay [2] is 14%. Besides, in assay [3], the “AR relative molar binding affinity (RBA) a) against RU 1881” value is on record as “a) 21%” and the “AR relative molar binding affinity (RBA) b) against dihydrotestosterone (DHT)” value (from here on “AR relative molar binding affinity … (DHT)”) is “b) 32%”. Besides, in assay [4] (1.0 mg/animal/day s.c.), the “Rate of Animals with Complete Inhibition of Nidation” value is 0/4.

For the molecule `CC1(O)CCC2C3CCC4=C(Br)C(=O)CCC4=C3C(c3ccc(C=NO)cc3)CC21C` (stereo not drawn) [Example 6, 4-(4′-Bromo-17β-hydroxy-17α-methyl-3-oxoestra-4,9-dien-11β-yl)benzaldehyde-1(E)-oxime], the “PR relative molar binding affinity (RBA)” value in assay [1] stood at 106%. Besides, in assay [2], the “GR relative molar binding affinity (RBA)” value is reported as 0.76%. For the same molecule, in assay [3], the “AR relative molar binding affinity (RBA) a) against RU 1881” value is “a) 14%” and the “AR relative molar binding affinity … (DHT)” value is “b) 22%”. The “Rate of Animals with Complete Inhibition of Nidation” value in assay [4] (1.0 mg/animal/day s.c.) is recorded as 5/5.

For `CCO[C@H]1CC[C@H]2[C@@H]3CCC4=CC(=O)CCC4=C3[C@@H](c3ccc(/C=N/O)cc3)C[C@]12C` [Example 15, 4-(17β-Ethoxy-3-oxoestra-4,9-dien-11β-yl)benzaldehyde-1(E)-oxime], the “PR relative molar binding affinity (RBA)” value in assay [1] worked out at 143%. The “GR relative molar binding affinity (RBA)” value in assay [2] is recorded as 17%. For the same molecule, in assay [3], the “AR relative molar binding affinity (RBA) a) against RU 1881” value was “a) 13%” and the “AR relative molar binding affinity … (DHT)” value was “b) 21%”.

Take `C[C@]12C[C@H](c3ccc(/C=N/O)cc3)C3=C4CCC(=O)C=C4CC[C@H]3[C@@H]1CC[C@@H]2OC(=O)c1ccccc1` [Example 16]: the “PR relative molar binding affinity (RBA)” value in assay [1] stood at 8%. Moreover, in assay [2], the “GR relative molar binding affinity (RBA)” value worked out at 3%. Moreover, in assay [3], the “AR relative molar binding affinity (RBA) a) against RU 1881” value is “a) 1.4%” and the “AR relative molar binding affinity … (DHT)” value is given as “b) 2.2%”.

As for `CC12CC(c3ccc(C=NO)cc3)C3=C4CCC(=O)C=C4CCC3C1CCC2OCc1ccccc1` (stereo not drawn) [Example 17, 4-(17β-Benzyloxy-3-oxoestra-4,9-dien-11β-yl)benzaldehyde-1(E)-oxime], the “PR relative molar binding affinity (RBA)” value in assay [1] is reported as 31%. Moreover, the “GR relative molar binding affinity (RBA)” value in assay [2] turned out to be 8%. Further, in assay [3], the “AR relative molar binding affinity (RBA) a) against RU 1881” value is “a) 2%” and the “AR relative molar binding affinity … (DHT)” value is reported as “b) 3%”.

As for `CC12CC(c3ccc(C=NO)cc3)C3=C4CCC(=O)C(Br)=C4CCC3C1CCC2O` (stereo not drawn) [Example 19, 4-(4′-Bromo-17β-hydroxy-3-oxoestra-4,9-dien-11β-yl)benzaldehyde-1(E)-oxime], the “PR relative molar binding affinity (RBA)” value in assay [1] came out at 51%. The “GR relative molar binding affinity (RBA)” value in assay [2] stood at 0.5%. In assay [3], the “AR relative molar binding affinity (RBA) a) against RU 1881” value was “a) 9%” and the “AR relative molar binding affinity … (DHT)” value is recorded as “b) 16%”.

`CCNC(=O)O/N=C/c1ccc([C@H]2C[C@@]3(C)[C@@H](CC[C@@]3(O)CO)[C@@H]3CCC4=CC(=O)CCC4=C32)cc1` [Example 20, 4-[17β-Hydroxy-17α-hydroxymethyl-3-oxoestra-4,9-dien-11β-yl]benzaldehyde-1-(E)-[O-(ethylamino)-carbonyl]oxime]: the “PR relative molar binding affinity (RBA)” value in assay [1] amounted to 12%. Besides, the “GR relative molar binding affinity (RBA)” value in assay [2] is listed as 5%. Further, in assay [3], the “AR relative molar binding affinity (RBA) a) against RU 1881” value is “a) 4%” and the “AR relative molar binding affinity … (DHT)” value was “b) 7%”.

Turning to `CC#C[C@]1(O)CC[C@H]2[C@@H]3CCC4=CC(=O)CCC4=C3[C@@H](c3ccc(N(C)C)cc3)C[C@@]21C` [RU 38 486, reference compound], the “Rate of Animals with Complete Inhibition of Nidation” value in assay [4] (0.3 mg/animal/day s.c.) was 0/5; in assay [4] (1.0 mg/animal/day s.c.), 2/5; in assay [4] (3.0 mg/animal/day s.c.), 5/5.
